Tests used:
[1] = system: Vibrio harveyi BB170 strain (AI-2 reporter bacterium); experiment: AI-2 activity inhibitory effect, photogenesis intensity of AI-2 reporter bacterium after addition of DPD; assay type: cell-based; details: relative to control with only DPD added (=100); 10 min preincubation, 4 h culture at 30° C
Experimental: The method of screening an improving agent or preventive agent for periodontal disease of the present invention containing mixing a bacterium having an autoinducer-2-mediated quorum sensing system with a test drug and selecting a test drug having an autoinducer-2 activity inhibitory effect as an improving agent or preventive agent for periodontal disease. For example, a Vibrio harveyi BB 170 strain is prepared in a culture medium at 1000- to 10000-fold dilution (preferably 4000- to 5000-fold) and preincubated with a test compound solution at room temperature for 1 to 30 minutes (preferably for 10 minutes). Then, AI-2 was added to the resultant solution, which was subjected to aerobic shaking culture at 30±5° C. Two (2) to six (6) hours later (preferably four (4) hours later), the photogenesis intensity is measured with a chemiluminescence analyzer. The final concentration of AI-2 is from 0.001 to 100 μM (preferably 10 μM). The final concentration of the test compound solutions is from 0.0001 to 0.1% or from 1 to 100 μM. Each concentration is not limited thereto. The photogenesis intensity when a control obtained by adding only the AI-2 is mixed with the test compound solution is measured as a relative value to the photogenesis intensity of control so that the AI-2 activity inhibitory effect of the test compound can be measured. The bacterium having an autoinducer-2-mediated quorum sensing system is not particularly limited. A reporter bacterium which recognizes the autoinducer-2 thereby emitting light is preferred and dental bacteria and periodontal pathogens can also be used. Further, the bacterium having an autoinducer-2-mediated quorum sensing system which is collected from the oral cavity of a subject can also be used as a specimen.
A Vibrio harveyi BB170 strain (cultured in an AB medium at 30° C. overnight) was used as an AI-2 reporter bacterium and it was 4500-fold diluted with an AB culture medium to prepare a reporter bacterium liquid. A reporter bacterium liquid was mixed with each of the test drugs, which was preincubated at room temperature for 10 minutes, followed by addition of DPD and aerobic shaking culture at 30° C. Four (4) hours later, the photogenesis intensity was measured with the chemiluminescence analyzer (LB940 type, manufactured by Berthold Japan co. ltd.). AI-2 was quantified from the measured photogenesis intensity in the same manner as described in Example 1.
The amount of AI-2 was a relative value to the amount of DPD of the control (the amount of AI-2) when one obtained by adding only the DPD without adding the test drugs was used as a control.

syrian hamsters = experiment: Alveolar bone resorption in floss-tied mandibular first molars of syrian hamsters; assay type: in vivo; details: syrian hamster; for Alveolar bone resorption depth (mm): 200 μL of 10 μM solution dropwise to floss-tied first molars twice a day for two weeks, control 2.87; for absorption of the alveolar bone: added dropwise to the oral cavity for two weeks
Experimental: The mandibule of syrian hamsters (three males, 7 weeks old) was extracted under anesthesia and a photograph was taken under the stereoscopic microscope. An evaluation site is the lingual surface of extraction mandibule. The obtained photographs were subjected to image analysis and a vertical distance from the first molar mesial cusp tip to the alveolar tip was measured.
Floss was tied around the left and right mandibular first molar teeth of other syrian hamsters (three males, 7 weeks old). From the next day on, 200 μL of a PBS solution containing 1% DMSO (concentration: 10 μM) of Compound 1 or 2 above was added dropwise to the same tied sites twice a day for two weeks and they were bred.
After the end of breeding, the mandibule was extracted under anesthesia and photographs were taken under the stereoscopic microscope. An evaluation site is the lingual surface of extraction mandibule and the taken photographs were subjected to image analysis. […] a vertical distance from the first molar mesial cusp tip to the alveolar tip was measured.
The alveolar bone resorption depth (a value before addition is subtracted from a value after addition for two weeks) was measured from the vertical distance from the first molar mesial cusp tip to the alveolar tip before addition of the test drug and after addition of the test drug for two weeks.

Row | SMILES | AI-2 amount (relative value) [1] | Alveolar bone resorption depth (mm) (syrian hamsters) | absorption of the alveolar bone (syrian hamsters)
1 | COc1ccc(C2OC(=O)C=C2Br)cc1 (centres unmarked) [Compound 1, 4-bromo-5-(4-methoxyphenyl)-2(5H)-furanone] | 29.6 | 2.50 mm | suppressed
2 | O=C1OC(O)C(Br)=C1Br (centres unmarked) [Compound 2, 3,4-dibromo-5-hydroxy-2(5H)-furanone] | 0 | 2.62 mm | suppressed
3 | COc1ccc(C2(OC)OC(=O)C=C2Br)cc1 (centres unmarked) [Compound 3, 4-bromo-5-methoxy-5-(4-methoxyphenyl)-2(5H)-furanone] | 62.5 |  | 
4 | COc1ccc(C2(Oc3ccc(C(=O)O)cc3)OC(=O)C=C2Br)cc1 (centres unmarked) [Compound 4, 4-{[3-bromo-2-(4-methoxyphenyl)-5-oxo-2,5-dihydro-2-furanyl]oxy}benzoate] | 76.0 |  | 
5 | CC1=C(O)C(=O)C(C)O1 (centres unmarked) [Compound 5, 4-hydroxy-2,5-dimethyl-3(2H)-furanone, reference compound] | 77.0 |  | 
6 | COC1(c2ccccc2)OC=C(c2ccccc2)C1=O (centres unmarked) [Compound 6, 2-methoxy-2,4-diphenyl-3(2H)-furanone, reference compound] | 88.9 |  | 
7 | CCCCCC1=CCCC1=O [Compound 7, 2-pentyl-2-cyclopentene-1-one, reference compound] | 63.4 |  | 

From patent US8568986B2, “Method of selecting an agent that improves periodontal disease” (Kao Corporation, priority 2009, dated 2013)
